Reference: US20210190775A1, “COMPOSITIONS AND METHODS FOR TAGGING AND DETECTING NUCLEIC ACIDS” (Nanoco Technologies Ltd., priority 2019, published 2021)

Columns and labels:
[1] = test system: A431 human squamous cell carcinoma; assay: Labelling of nuclear and cytoplasmic DNA or RNA in live cells; type: cell-based; details: conjugate 50 μg/mL or Hoechst 33342 0.2 μg/mL, 15h
[2] = test system: DNA threads mounted on a glass slide; assay: Detection of DNA mounted on a glass slide by fluorescence microscopy; type: binding; details: DNA 0.3 μg/mL, final dye concentration 0.4 mg/mL, 50× objective, DAPI filter cube
Protocol: The DNA binding and enhanced detection ability were also observed using trace amounts of DNA mounted on a glass slide. In this experiment, a DNA solution was prepared in DI water at 0.3 μg/mL and was mixed with the QD-fluorescent dye conjugate nanoparticles (Ex. 1) or with the Hoechst 33342 only (control experiment) at a final dye concentration of 0.4 mg/mL. A 3 μL solution of each composition was mounted on a slide, smeared and let to dry. The slide was then observed under a fluorescence microscope (Olympus BX51) using 50× objective and a DAPI filter cube (UMWU2) and equipped with an Osram HBO50W/AC L1 Short arc mercury lamp as an excitation source. […] All the images were taken using the same microscopy settings. FIG. 6 indicates an enhanced ability to detect DNA on a glass slide (zoomed in to show DNA strands covered with Hoechst-QDs).

Question: Which results are given for `CCOc1ccc(-c2nc3cc(-c4nc5cc(N6CCN(C)CC6)ccc5[nH]4)ccc3[nH]2)cc1.Cl.Cl.Cl` [Hoechst 33342, 2′-(4-ethoxyphenyl)-5-(4-methyl-1-piperazinyl)-2,5′-bi-1H-benzimidazole trihydrochloride]?
Answer: labelling of cells (fluorescence microscopy) [1]: the nuclei were stained but without the ability to detect cell-cell communication; detection of DNA threads on glass slide [2]: almost no signal was observed
